In one experiment the target is HIV-1 protease (Human immunodeficiency virus type 1 group M subtype B, UniProt P04585). The experiment is described as follows: biochemical. As to conditions: Table 12; HIV-1 protease; read-out: Ki.
The test system of the next experiment is HIV-1 (strain IIIB). Briefly: microbe, parasite or virus in culture. The class given is cell-based. Particulars: Human immunodeficiency virus 1, IIIB, MT4, Table 12; anti-viral potency in MT-4 cells; read-out: IC50.

Each structure is given as a SMILES string.

In general, Ki refers to the equilibrium dissociation constant of an inhibitor or competing ligand from its target. A word on the IC50: it is the midpoint of a concentration-inhibition curve. Regarding `CN(C)C(=O)NCCCC(C)(C)CN(CC(O)C(Cc1ccccc1)NC(=O)OC1COC2OCCC12)S(=O)(=O)c1ccc2c(c1)OCCO2` [Compound 268, (3R,3aS,6aR)hexahydrofuro[2,3-b]furan-3-yl N-(1S,2R)-1-benzyl-3-[(2,3-dihydro-1,4-benzodioxin-6-ylsulfonyl)(5-[(dimethylamino)carbonyl]amino-2,2-dimethylpentyl)amino]-2-hydroxypropylcarbamate], the Ki at HIV-1 protease was under 1 nM. Further, the IC50 with HIV-1 (strain IIIB) is at most 100 nM.
For `CC(C)(CCCNS(C)(=O)=O)CN(C[C@@H](O)[C@H](Cc1ccccc1)NC(=O)O[C@H]1CO[C@H]2OCC[C@H]21)S(=O)(=O)c1ccc2c(c1)OCO2` [Compound 269, (3R,3aS,6aR)hexahydrofuro[2,3-b]furan-3-yl N-[(1S,2R)-3-((1,3-benzodioxol-5-ylsulfonyl)2,2-dimethyl-5-[(methylsulfonyl)amino]pentylamino)-1-benzyl-2-hydroxypropyl]carbamate] the same measures were under 1 nM and at most 100 nM.
On to `CC(C)(CCCN)CN(CC(O)C(Cc1ccccc1)NC(=O)OC1COC2OCCC12)S(=O)(=O)c1ccc2c(c1)OCCO2` [Compound 262, (3R,3aS,6aR)hexahydrofuro[2,3-b]furan-3-yl N-(1S,2R)-3-[(5-amino-2,2-dimethylpentyl)(2,3-dihydro-1,4-benzodioxin-6-ylsulfonyl)amino]-1-benzyl-2-hydroxypropylcarbamate], for which, at HIV-1 protease, the Ki was under 1 nM. Besides, in the experiment with HIV-1 (strain IIIB), the IC50 was in the range of 100 to 500 nM.
Turning to `COc1ccc(S(=O)(=O)N(C=C(C#N)C#N)C[C@@H](O)[C@H](Cc2ccccc2)NC(=O)OC(C)(C)C)cc1` [Compound 113], the Ki at HIV-1 protease fell in the range of 10 to 100 nM. The IC50 in the experiment with HIV-1 (strain IIIB) is 500 to 1000 nM.
For the compound `CC(C)(CCC#N)CN(CC(O)C(Cc1ccccc1)NC(=O)OC1COC2OCCC12)S(=O)(=O)c1ccc2c(c1)OCCO2` (stereo not shown) [Compound 37], on HIV-1 protease, the Ki was under 1 nM. Moreover, in the experiment on HIV-1 (strain IIIB), the half-maximal inhibitory concentration (IC50) was at most 100 nM.
Turning to `COC(=O)NCCCCC(C)(C)CN(C[C@@H](O)[C@H](Cc1ccccc1)NC(=O)O[C@H]1CO[C@H]2OCC[C@H]21)S(=O)(=O)c1ccc2c(c1)OCCO2` [Compound 250, (3R,3aS,6aR)hexahydrofuro[2,3-b]furan-3-yl N-[(1S,2R)-1-benzyl-3-((2,3-dihydro-1,4-benzodioxin-6-ylsulfonyl)6-[(methoxycarbonyl)amino]-2,2-dimethylhexylamino)-2-hydroxypropyl]carbamate], the inhibition constant (Ki) at HIV-1 protease is under 1 nM. The IC50 with HIV-1 (strain IIIB) is at most 100 nM.
The corresponding values for `CN(C)C(=O)NCCCCC(C)(C)CN(CC(O)C(Cc1ccccc1)NC(=O)OC1COC2OCCC12)S(=O)(=O)c1ccc2c(c1)OCCO2` [Compound 251, (3R,3aS,6aR)hexahydrofuro[2,3-b]furan-3-yl N-(1S,2R)-1-benzyl-3-[(2,3-dihydro-1,4-benzodioxin-6-ylsulfonyl)(6-[(dimethylamino)carbonyl]amino-2,2-dimethylhexyl)amino]-2-hydroxypropylcarbamate] are under 1 nM and at most 100 nM.
Consider `CCC(CCC#N)CN(CC(O)C(Cc1ccccc1)NC(=O)OC1CCOC1)S(=O)(=O)c1ccc(OC)cc1` [Compound 9, (3S)-Tetrahydro-3-furanyl N-((1S,2R)-1-benzyl-3-[(2RS)-4-cyano-2-ethyl][(4-methoxyphenyl)sulfonyl]amino-2-hydroxypropyl)carbamate], for which the Ki on HIV-1 protease was under 1 nM. The 50% inhibitory concentration (IC50) with HIV-1 (strain IIIB) is over 1000 nM.
Turning to `COc1ccc(S(=O)(=O)N(CCCCC2(C)OCCO2)C[C@@H](O)[C@H](Cc2ccccc2)NC(=O)OC(C)(C)C)cc1` [Compound 201, tert-Butyl N-((1S,2R)-1-benzyl-2-hydroxy-3-[(4-methoxyphenyl)sulfonyl][4-(2-methyl-1,3-dioxolan-2-yl)butyl]aminopropyl)carbamate], on HIV-1 protease, the Ki lay in the range of 1 to 10 nM. Besides, the IC50 in the experiment on HIV-1 (strain IIIB) is over 1000 nM.
For the compound `COC(=O)NCCCC(C)(C)CN(CC(O)C(Cc1ccccc1)NC(=O)OC1COC2OCCC12)S(=O)(=O)c1ccc(OC)cc1` [Compound 213, (3R,3aS,6aR)hexahydrofuro[2,3-b]furan-3-yl N-((1S,2R)-1-benzyl-2-hydroxy-3-5-[(methoxycarbonyl)amino]-2,2-dimethylpentyl[(4-methoxyphenyl)sulfonyl]aminopropyl)carbamate and (3S,3aR,6aS)hexahydrofuro[2,3-b]furan-3-yl N-((1S,2R)-1-benzyl-2-hydroxy-3-5-[(methoxycarbonyl)amino]-2,2-dimethylpentyl[(4-methoxyphenyl)sulfonyl]aminopropyl)carbamate], the Ki at HIV-1 protease is under 1 nM. Besides, the IC50 in the experiment on HIV-1 (strain IIIB) was at most 100 nM.
Take `CC(C)(CCC#N)CN(CC(O)C(Cc1ccccc1)NC(=O)OC1COC2OCCC12)S(=O)(=O)c1ccc(OCc2ccccc2)cc1` [Compound 32, {(1S,2R)-3-[(4-benzyloxybenzenesulfonyl)-(4-cyano-2,2-dimethyl-butyl)-amino]-1-benzyl-2-hydroxy-propyl}-carbamic acid (2R,3aS,6aR)hexahydro-furo[2,3-b]furan-3-yl ester]: the Ki at HIV-1 protease is under 1 nM. Also, the IC50 in the experiment with HIV-1 (strain IIIB) was in the range of 100 to 500 nM.

The values are drawn from patent publication US6617350B2, “Inhibitors of aspartyl protease” (priority 1999, dated 2003).
